Assay [1] concerns the target Procathepsin L (Homo sapiens, UniProt P07711).
In assay [2] the target is Aspartyl aminopeptidase (Plasmodium falciparum 3D7, UniProt Q8I2J3).
Assay [3] addresses Cytochrome P450 2D6 (Homo sapiens, UniProt P10635). The assay is described as follows: qHTS Assay for Inhibitors and Substrates of Cytochrome P450 2D6. [Related pubchem assays: 410 ]. It counts as ADME. The note with it: read-out: Potency.
For assay [4], the target named is Cytochrome P450 2C19 (Homo sapiens, UniProt P33261). The assay is described as follows: qHTS Assay for Inhibitors and Substrates of Cytochrome P450 2C19. [Related pubchem assays: 410 ]. It is filed as ADME. To be noted: read-out: Potency. In general terms: Quantitative high-throughput screening tests each substance at several concentrations.
Assay [5] addresses Induced myeloid leukemia cell differentiation protein Mcl-1 (Homo sapiens, UniProt Q07820). It is filed as functional.
For assay [6], the target named is T1, Streptokinase A (Streptococcus pyogenes serotype M1, UniProt P10520).
T1 sequence (P10520 whole entry): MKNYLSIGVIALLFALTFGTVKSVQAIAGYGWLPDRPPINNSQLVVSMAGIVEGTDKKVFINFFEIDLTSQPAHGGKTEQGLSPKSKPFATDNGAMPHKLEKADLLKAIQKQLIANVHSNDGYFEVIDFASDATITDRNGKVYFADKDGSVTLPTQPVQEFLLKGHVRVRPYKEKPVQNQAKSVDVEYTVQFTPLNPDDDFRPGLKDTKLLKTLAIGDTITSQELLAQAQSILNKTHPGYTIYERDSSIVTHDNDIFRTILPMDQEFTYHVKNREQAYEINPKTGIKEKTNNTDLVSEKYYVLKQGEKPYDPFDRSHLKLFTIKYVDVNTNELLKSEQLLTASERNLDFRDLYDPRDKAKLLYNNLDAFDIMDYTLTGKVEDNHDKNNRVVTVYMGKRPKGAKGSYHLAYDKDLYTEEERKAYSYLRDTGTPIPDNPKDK
As to the kind of experiment: S. pyogenes streptokinase expression inhibitors, potency, dose response, plasminogen activation absorbance, OD405 (AID 1914).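 Further: secreted streptokinase activity via plasminogen activation per viability signal from cell pellet.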 It counts as functional, Streptococcus pyogenes M1 GAS.

The target in assay [7] is Intestinal-type alkaline phosphatase (Mus musculus, UniProt P24822). The assay is described as follows: PubChem AID 488785. It is filed as functional.
Assay [8] has as its target Intestinal-type alkaline phosphatase (Homo sapiens, UniProt P09923). As to the kind of experiment: activation of human intestinal alkaline phosphatase – biochemical, dose response (AID 488873). It counts as functional.
Assay [9] concerns Streptococcus sp. 'group A'. As to the kind of experiment: growth inhibition of control SK(-) GAS strain, dose response, counter-screen for streptokinase expression inhibitor project, luminescence, kanamycin, BacTiterGlo, confirmation (AID 1900). It counts as functional, organism-based. Background: The purpose of a counterscreen is to sort out artefacts and off-target activity.

In assay [10] the target is T2, Alkaline phosphatase, tissue-nonspecific isozyme (Homo sapiens, UniProt P05186).
T2 sequence (P05186 whole entry): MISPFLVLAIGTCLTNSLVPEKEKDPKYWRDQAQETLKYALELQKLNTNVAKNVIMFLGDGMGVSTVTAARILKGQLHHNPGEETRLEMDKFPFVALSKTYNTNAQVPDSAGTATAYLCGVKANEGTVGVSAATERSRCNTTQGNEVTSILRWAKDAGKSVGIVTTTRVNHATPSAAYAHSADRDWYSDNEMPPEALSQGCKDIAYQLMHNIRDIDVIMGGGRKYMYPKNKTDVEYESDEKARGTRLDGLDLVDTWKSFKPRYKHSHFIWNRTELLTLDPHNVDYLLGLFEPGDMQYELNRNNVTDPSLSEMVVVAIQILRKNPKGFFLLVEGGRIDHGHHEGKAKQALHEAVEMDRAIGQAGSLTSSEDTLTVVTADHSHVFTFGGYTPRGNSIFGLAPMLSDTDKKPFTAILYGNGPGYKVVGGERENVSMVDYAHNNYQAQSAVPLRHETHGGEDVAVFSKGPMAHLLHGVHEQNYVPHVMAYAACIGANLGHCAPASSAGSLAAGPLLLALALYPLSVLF
The assay is described as follows: TNAP enzyme inhibition by screening hits, dose response, selectivity assay for mouse IAP inhibitor project, biochemical, human TNAP, uHTS hits (AID 488906). It is filed as functional.

In assay [11] the test system is Streptococcus. As to the kind of experiment: Group A Streptococcus viability loss, dose response, counter-screen for streptokinase expression inhibitor project, luminescence, BacTiterGlo (AID 1915).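 Further: potency for reduction of bacterial viability or growth.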 It counts as functional, organism-based.
For assay [12], the target named is T3, Insulin-degrading enzyme (Homo sapiens, UniProt P14735).
T3 sequence (P14735 whole entry): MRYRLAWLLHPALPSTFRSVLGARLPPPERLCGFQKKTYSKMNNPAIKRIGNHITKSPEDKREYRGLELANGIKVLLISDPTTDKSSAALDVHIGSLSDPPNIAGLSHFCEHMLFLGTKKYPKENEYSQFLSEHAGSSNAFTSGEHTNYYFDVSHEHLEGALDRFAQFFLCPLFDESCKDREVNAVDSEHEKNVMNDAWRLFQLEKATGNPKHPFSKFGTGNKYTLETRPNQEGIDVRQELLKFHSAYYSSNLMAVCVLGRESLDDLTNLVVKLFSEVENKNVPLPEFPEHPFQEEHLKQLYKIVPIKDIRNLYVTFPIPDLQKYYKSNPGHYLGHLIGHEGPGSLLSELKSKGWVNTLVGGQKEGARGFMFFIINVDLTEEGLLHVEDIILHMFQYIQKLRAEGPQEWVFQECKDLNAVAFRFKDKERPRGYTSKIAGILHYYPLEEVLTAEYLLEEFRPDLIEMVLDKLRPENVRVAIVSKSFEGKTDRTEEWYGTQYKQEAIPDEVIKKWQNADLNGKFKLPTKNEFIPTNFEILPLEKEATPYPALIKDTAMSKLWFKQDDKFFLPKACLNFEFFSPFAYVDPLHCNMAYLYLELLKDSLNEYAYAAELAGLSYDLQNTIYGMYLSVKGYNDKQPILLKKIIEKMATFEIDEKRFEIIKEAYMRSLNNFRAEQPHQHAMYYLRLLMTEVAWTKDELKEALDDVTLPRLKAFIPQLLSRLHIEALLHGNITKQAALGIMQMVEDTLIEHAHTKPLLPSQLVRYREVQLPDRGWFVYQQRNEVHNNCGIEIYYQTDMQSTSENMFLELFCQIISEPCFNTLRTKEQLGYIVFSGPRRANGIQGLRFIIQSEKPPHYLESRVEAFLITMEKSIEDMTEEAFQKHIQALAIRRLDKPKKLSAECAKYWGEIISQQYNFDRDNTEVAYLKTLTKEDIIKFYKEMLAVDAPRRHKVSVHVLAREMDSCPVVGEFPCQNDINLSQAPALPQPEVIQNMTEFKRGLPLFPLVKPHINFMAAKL
As to the kind of experiment: Dose Response: Fluorescence polarization-based cell-based high throughput dose response assay for inhibitors of insulin-degrading enzyme (IDE). [Related pubchem assays: 434962 (Primary screen (IDE inhibitors in singlicate)), 449730 (Counterscreen (Cytotoxicity in triplicate)), 435028 (Confirmation (IDE inhibitors in triplicate)), 434984 (Summary …. It is filed as functional.

Assay [13] in a line: Counterscreen for IDE inhibitors: Luminescence-based cell-based high throughput dose response assay to identify compounds that are cytotoxic to HEK cells. [Related pubchem assays: 434962 (Primary screen (IDE inhibitors in singlicate)), 449730 (Counterscreen (Cytotoxicity in triplicate)), 435028 (Confirmation (IDE inhibitors in triplicate)) …. The note with it: HEK293. It counts as functional.

The target in assay [14] is T4, Zinc finger protein mex-5 (Caenorhabditis elegans, UniProt Q9XUB2).
T4 sequence (Q9XUB2 whole entry): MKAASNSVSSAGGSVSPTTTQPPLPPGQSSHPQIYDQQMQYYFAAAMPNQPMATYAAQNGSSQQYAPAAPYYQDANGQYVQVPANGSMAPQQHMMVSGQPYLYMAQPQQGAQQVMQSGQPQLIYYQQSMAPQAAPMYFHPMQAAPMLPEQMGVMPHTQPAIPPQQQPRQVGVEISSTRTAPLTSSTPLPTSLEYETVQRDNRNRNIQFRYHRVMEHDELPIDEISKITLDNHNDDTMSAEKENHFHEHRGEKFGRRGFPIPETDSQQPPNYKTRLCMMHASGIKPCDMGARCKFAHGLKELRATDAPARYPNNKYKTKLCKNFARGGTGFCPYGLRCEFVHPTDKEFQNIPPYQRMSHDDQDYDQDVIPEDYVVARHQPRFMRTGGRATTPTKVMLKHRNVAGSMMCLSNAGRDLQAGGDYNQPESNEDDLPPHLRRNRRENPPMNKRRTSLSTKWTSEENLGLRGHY
As to the kind of experiment: MEX-5/TCR-2 RNA interaction inhibitors, dose response, biochemical, C. elegans, fluorescence polarization (AID 1960). Background: Polarisation of emitted light reports the rotation of a fluorescent probe.

Assay [15] addresses T5, RNA-binding protein pos-1 (Caenorhabditis elegans, UniProt G5EF15).
T5 sequence (G5EF15 whole entry): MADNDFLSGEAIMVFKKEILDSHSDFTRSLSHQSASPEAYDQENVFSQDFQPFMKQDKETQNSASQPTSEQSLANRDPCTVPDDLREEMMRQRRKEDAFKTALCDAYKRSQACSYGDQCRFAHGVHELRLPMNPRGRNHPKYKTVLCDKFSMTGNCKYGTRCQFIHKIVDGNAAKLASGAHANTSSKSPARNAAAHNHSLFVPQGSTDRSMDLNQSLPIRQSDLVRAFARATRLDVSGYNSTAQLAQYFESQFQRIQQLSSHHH
The assay is described as follows: inhibitors of POS-1/mex-3 RNA binding, dose response, biochemical, fluorescence polarization (AID 1964).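 Further: purified POS-1 fused to maltose binding protein made in E. coli; potency of compounds blocking POS-1 binding to fluorescent RNA.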

Assay [16] addresses Prothrombin (Bos taurus, UniProt P00735). The assay is described as follows: thrombin inhibition, dose response, biochemical, fluorescence polarization, uHTS hits (AID 602369). It is filed as functional.
The target of assay [17] is 26S proteasome non-ATPase regulatory subunit 14 (Homo sapiens, UniProt O00487). The assay is described as follows: inhibition of proteasome subunit RPN11 – biochemical, fluorescence polarization, uHTS hits, confirmation (AID 602368). It counts as functional.
Assay [18] deals with 72 kDa type IV collagenase (Homo sapiens, UniProt P08253). As to the kind of experiment: Dose Response validation of uHTS RPN11 inhibitor hits using a MMP-2 Fluorescence assay. It is filed as functional.

Molecules are shown by their SMILES. The source made the active and inactive calls.

Consider five compounds from ChEMBL document CHEMBL1201862, “PubChem BioAssay data set” (2004).

As usually defined, the IC50 is the point on the concentration scale where inhibition reaches its midpoint. A word on the EC50: it is the concentration giving half of the maximal effect.

Chain of Procathepsin L (P07711 whole entry): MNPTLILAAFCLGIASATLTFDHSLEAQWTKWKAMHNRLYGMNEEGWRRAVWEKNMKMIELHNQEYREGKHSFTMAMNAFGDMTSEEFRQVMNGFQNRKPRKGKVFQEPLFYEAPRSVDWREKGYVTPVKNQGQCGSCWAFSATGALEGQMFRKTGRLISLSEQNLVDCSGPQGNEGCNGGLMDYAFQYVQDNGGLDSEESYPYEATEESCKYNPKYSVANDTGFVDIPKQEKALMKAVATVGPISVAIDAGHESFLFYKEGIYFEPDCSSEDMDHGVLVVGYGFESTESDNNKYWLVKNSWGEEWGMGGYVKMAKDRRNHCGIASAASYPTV
Chain of Aspartyl aminopeptidase (Q8I2J3 whole entry): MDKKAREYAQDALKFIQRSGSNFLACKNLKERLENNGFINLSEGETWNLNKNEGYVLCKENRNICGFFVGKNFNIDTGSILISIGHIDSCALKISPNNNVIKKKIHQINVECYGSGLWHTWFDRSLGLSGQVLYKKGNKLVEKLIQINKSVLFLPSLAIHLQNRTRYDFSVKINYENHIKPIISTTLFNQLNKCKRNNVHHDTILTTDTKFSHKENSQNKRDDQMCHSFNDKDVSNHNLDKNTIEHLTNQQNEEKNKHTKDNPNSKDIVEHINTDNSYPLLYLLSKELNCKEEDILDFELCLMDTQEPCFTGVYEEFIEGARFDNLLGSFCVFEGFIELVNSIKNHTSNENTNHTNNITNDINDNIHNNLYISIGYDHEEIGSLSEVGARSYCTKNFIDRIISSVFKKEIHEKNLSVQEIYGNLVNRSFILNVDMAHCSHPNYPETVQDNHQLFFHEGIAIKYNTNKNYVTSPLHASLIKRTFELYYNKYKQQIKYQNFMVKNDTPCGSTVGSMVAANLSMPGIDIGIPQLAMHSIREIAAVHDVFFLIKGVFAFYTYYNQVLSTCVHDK
Chain of Intestinal-type alkaline phosphatase (Mus musculus, UniProt P24822) (P24822 whole entry): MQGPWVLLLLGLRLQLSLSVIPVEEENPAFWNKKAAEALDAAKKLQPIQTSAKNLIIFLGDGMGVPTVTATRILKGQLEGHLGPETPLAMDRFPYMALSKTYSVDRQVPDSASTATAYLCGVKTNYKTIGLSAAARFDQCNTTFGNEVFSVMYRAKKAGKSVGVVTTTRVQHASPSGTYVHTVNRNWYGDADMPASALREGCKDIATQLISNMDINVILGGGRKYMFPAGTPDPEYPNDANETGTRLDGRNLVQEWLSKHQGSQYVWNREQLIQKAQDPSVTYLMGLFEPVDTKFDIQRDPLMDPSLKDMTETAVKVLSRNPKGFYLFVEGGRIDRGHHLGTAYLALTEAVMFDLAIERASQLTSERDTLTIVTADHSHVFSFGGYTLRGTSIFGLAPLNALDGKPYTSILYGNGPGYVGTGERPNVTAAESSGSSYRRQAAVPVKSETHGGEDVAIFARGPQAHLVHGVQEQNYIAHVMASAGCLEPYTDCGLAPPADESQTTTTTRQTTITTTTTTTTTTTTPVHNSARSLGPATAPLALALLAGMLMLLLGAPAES
Chain of Intestinal-type alkaline phosphatase (Homo sapiens, UniProt P09923) (P09923 whole entry): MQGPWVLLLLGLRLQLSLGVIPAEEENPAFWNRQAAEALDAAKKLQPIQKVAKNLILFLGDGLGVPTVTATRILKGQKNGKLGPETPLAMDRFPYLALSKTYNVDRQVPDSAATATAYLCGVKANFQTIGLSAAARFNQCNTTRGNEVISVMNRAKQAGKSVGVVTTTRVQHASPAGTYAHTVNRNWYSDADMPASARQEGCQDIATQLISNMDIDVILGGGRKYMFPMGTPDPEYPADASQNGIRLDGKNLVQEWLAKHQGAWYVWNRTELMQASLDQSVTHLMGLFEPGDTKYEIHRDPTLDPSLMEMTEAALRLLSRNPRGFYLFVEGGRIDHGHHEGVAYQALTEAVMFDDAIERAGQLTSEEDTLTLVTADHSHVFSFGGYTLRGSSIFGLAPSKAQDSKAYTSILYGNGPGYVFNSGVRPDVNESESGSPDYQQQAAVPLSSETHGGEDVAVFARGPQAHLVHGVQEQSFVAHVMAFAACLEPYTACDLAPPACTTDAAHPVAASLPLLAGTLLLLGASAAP
Chain of Cytochrome P450 2C19 (P33261 whole entry): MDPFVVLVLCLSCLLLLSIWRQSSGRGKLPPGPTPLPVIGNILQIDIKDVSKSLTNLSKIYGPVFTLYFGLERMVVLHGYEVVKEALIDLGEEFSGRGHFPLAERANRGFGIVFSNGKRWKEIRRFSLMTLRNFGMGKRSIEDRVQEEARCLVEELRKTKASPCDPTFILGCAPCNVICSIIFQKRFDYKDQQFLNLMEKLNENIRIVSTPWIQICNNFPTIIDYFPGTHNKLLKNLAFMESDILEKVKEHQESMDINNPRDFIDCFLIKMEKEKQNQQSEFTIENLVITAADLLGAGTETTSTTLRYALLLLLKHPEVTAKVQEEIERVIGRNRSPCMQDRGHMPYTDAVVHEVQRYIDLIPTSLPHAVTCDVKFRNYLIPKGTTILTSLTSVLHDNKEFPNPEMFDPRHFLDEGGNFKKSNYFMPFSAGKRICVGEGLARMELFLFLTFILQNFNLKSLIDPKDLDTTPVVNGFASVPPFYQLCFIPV
Chain of 26S proteasome non-ATPase regulatory subunit 14 (O00487 whole entry): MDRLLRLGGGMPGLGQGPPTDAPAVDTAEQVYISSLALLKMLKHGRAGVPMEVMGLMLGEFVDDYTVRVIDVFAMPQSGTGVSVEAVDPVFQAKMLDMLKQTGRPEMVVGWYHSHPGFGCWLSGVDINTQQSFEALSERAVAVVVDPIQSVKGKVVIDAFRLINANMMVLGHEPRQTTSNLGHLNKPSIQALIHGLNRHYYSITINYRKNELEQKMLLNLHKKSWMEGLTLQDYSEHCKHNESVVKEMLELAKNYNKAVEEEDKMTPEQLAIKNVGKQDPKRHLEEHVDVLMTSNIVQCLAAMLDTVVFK
Chain of Induced myeloid leukemia cell differentiation protein Mcl-1 (Q07820 whole entry): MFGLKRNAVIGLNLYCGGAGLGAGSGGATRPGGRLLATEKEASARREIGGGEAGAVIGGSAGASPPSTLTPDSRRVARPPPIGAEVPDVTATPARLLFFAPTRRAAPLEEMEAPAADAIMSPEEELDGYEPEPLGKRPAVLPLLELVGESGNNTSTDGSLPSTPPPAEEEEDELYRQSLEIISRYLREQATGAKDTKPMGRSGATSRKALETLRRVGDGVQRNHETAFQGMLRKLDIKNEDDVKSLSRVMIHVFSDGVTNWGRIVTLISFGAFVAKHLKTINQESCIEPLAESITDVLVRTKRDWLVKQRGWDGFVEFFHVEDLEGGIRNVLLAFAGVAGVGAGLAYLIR
Chain of 72 kDa type IV collagenase (P08253 whole entry): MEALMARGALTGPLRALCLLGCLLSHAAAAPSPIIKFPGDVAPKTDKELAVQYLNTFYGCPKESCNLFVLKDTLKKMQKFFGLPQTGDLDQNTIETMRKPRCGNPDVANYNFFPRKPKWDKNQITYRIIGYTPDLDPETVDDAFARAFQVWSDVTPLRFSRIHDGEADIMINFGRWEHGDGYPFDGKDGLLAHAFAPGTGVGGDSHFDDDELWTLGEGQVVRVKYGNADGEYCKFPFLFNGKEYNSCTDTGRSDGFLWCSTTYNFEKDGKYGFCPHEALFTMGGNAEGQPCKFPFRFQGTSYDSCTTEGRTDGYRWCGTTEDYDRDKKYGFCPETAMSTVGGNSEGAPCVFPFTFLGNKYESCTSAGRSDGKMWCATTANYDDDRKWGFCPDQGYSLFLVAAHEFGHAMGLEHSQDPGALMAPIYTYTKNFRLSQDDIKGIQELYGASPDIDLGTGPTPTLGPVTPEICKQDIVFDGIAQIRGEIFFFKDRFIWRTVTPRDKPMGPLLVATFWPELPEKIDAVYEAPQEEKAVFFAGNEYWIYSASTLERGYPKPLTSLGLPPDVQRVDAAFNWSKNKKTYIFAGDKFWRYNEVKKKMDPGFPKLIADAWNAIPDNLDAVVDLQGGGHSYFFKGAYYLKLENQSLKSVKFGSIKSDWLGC
Chain of Cytochrome P450 2D6 (P10635 whole entry): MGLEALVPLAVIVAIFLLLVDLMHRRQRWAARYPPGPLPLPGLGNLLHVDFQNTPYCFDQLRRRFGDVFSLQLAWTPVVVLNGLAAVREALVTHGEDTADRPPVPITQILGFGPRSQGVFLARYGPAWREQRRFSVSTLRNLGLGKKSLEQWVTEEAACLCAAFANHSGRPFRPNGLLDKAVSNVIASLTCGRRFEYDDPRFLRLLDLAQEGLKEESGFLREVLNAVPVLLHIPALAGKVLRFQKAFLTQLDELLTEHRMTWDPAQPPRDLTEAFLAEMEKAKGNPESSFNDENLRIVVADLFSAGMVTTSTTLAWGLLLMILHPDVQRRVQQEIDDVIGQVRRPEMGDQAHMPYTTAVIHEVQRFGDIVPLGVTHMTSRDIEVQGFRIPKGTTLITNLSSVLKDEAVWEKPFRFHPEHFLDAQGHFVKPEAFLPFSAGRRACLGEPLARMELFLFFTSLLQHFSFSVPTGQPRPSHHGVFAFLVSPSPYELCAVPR

For `COc1ccc(C(=O)n2cnnc2N)cc1`, the IC50 in assay [1] is > 59.6 µM (not active); in assay [2], 2.51 µM (active).

As for `CCOC(=O)[C@]1(C(NC(=O)OC)c2cccc(F)c2)CCCC1=O` (stereo not given in full), the AC50 in assay [3] and in assay [4] was 3.98 µM (inconclusive) throughout.

In the case of `NS(=O)(=O)c1ccc(-c2ccc(/C=C3\SC(=S)N(C4CCS(=O)(=O)C4)C3=O)o2)cc1` (stereo not given), the 50% inhibitory concentration (IC50) in assay [5] was 1.85 µM (active); in assay [7], > 100 µM (inactive); in [10], 1.32 µM (active). The concentration for a half-maximal effect (EC50) was > 150 µM (not active) in assay [6], 29.4 µM (active) in assay [8], 7.36 µM (active) in assay [9] and 32.2 µM (active) in assay [11].

On to `COc1cc(OC)c(OC)cc1/C=C1\Oc2cc(OS(C)(=O)=O)ccc2C1=O`, for which the half-inhibitory concentration (IC50) in assay [12] was > 55.9 µM (not active); in assay [13], > 55.7 µM (not active); in assay [16], 0.468 µM (active); in [17], 4.35 µM (active); in assay [18] it was > 100 µM (inactive). For the same compound, the EC50 in assay [14] and in [15] was > 300 µM (not active) each time.

As for `CCOc1cc(C(=O)NC(=S)Nn2cnnc2)cc(OCC)c1OCC`, the IC50 was > 59.6 µM (not active) in assay [1] and 0.921 µM (active) in assay [2].
